Earlier results on 7 compounds are cited in patent US6331653A, “Process for producing 3,4-dihydroxy-3-cyclobutene-1,2-dione” (priority 1997, dated 2001).

Molecules are shown by their SMILES.

For one data set the following is noted: in an aqueous solution at 25° C.; amine compound.
Take `CN1CCCCC1` [N-methylpiperidine]: the pKa value is on record as 10.1. On to `CN1CCCC1` [N-methylpyrrolidine], for which the pKa value was 10.5.

`c1ccc2ncccc2c1` [Quinoline]: the pKa value was 4.8. For `Cc1ccccn1` [α-picoline], the pKa value is reported as 5.9.

Staying with this data set, now noted: water.
Take `CCN(CC)c1ccccc1` [N,N-diethylaniline]: the pKa value is 6.6. With `CN(C)c1ccccc1` [N,N-dimethylaniline], the pKa value is reported as 5.2. For `CCCCN(CCCC)CCCC` [tributylamine], the pKa value is 9.9.
